One may read the IC50 as the concentration at which inhibition is half-maximal.

IC50 data for four compounds are collected here from patent publication US20060167075A1, “Modulators of FAAH” (priority 2005, published 2006).

Each structure is given as a SMILES string.

The target in assay [1] is T1, FAAH (Rattus norvegicus, UniProt P97612).
T1 construct: FAAH activity was assayed in the respective homogenates (Rat brain or Human brain); from tissue; host or cells: rat brain membrane homogenate (Charles River CD strain)
T1 sequence (P97612 1-579): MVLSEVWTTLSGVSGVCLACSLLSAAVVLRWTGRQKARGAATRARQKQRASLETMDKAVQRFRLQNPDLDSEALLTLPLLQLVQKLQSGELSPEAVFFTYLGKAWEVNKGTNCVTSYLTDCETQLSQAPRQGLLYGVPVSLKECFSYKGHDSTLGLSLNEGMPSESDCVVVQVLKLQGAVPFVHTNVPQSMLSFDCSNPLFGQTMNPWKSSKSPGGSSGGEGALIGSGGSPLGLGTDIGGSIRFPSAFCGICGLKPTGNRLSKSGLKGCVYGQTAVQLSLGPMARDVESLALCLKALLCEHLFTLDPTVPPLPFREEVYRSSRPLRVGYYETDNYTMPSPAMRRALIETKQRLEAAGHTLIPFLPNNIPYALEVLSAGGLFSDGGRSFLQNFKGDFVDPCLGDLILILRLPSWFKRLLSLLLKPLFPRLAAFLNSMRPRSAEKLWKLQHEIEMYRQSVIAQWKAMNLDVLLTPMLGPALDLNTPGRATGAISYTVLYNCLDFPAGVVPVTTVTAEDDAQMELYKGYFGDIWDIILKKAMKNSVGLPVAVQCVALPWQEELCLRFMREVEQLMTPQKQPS
Briefly: FAAH activity in rat brain membrane (RBM) homogenate, 3H-anandamide hydrolysis. Format: biochemical. The following applies: 10 min at 37° C., pH 6.5.
Method: (§1) To assess FAAH inhibition, compounds were tested in an assay using rat brain microsomes and an assay using human brain microsomes using the methods described below.
Nine adult rats (Charles River CD strain, female, 200 g) were anaesthetized with isofluorane and rapidly decapitated. Each brain was quickly removed and chilled in tubes (3 brains per tube) on ice. Total wet weight of the 9 brains was ˜18 g. 25 mL of homogenization buffer (20 mM HEPES buffer, pH 7.0, with 1 mM MgCl2) was added to each tube. The brains were homogenized on ice for 1 minute using an Omni GLH homogenizer (Omni International, Marietta, Ga.). The homogenates were transferred to three centrifuge tubes and centrifuged at 36,500 g for 20 minutes at 4° C. The supernatant was discarded and each pellet was re-suspended in 25 ml homogenization buffer. The resuspended material was again centrifuged (36,500g, 20 min at 4° C.). The pellets were combined by resuspension in 10 mL of homogenization buffer and incubated in a 37° C. water bath for 15 min. The tube was then placed on ice for 5 min followed by centrifugation at 36,500 g for 20 minutes at 4° C. The supernatant was discarded and the membrane pellet was then resuspended in 40 mL of resuspension buffer (50 mM Tris-HCl buffer, pH 7.4, containing 1 mM EDTA and 3 mM MgCl2). A Bradford Protein assay was performed to determine protein concentration. […]
(§2) Samples were placed on ice to terminate the reactions. […] Radioactivity (corresponding to FAAH-catalyzed breakdown of ^3H-anandamide) found in aliquots (0.2 ml) of the aqueous phase was determined by liquid scintillation counting with quench correction.
(§3) The method of Wilson et al. was modified by acidifying the reaction mixtures by the addition of 10 μl of sodium phosphate solution [0.5M (pH 2.0)] after reactions were incubated at 37° C. for 10 min and chilled on ice. […] The columns were centrifuged and the eluate was counted as described by Wilson et al.

For assay [2], the target named is T2, FAAH (Homo sapiens, UniProt O00519).
T2 construct: FAAH activity was assayed in the respective homogenates (Rat brain or Human brain); tissue Analytical Biological Services (ABS), Inc; host or cells: human brain cortex membrane homogenate, pooled from three donors
T2 sequence (O00519 1-579): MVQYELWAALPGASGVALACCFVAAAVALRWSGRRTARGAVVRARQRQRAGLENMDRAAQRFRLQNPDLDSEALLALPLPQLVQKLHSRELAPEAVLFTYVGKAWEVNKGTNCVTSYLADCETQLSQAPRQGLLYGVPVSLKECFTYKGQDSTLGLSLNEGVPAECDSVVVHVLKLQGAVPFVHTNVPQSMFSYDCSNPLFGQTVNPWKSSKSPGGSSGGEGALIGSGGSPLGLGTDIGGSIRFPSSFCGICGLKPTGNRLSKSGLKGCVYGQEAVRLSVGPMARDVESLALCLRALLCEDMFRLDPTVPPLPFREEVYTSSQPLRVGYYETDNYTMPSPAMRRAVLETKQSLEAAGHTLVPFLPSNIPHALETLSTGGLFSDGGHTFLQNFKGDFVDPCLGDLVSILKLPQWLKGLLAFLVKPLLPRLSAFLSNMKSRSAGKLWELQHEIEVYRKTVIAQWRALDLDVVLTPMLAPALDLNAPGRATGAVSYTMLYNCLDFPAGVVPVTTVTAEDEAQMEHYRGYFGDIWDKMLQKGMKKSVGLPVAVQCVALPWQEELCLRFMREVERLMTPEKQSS
Briefly: FAAH activity in human brain membrane (HBM) homogenate, 3H-anandamide hydrolysis. The following applies: 10 min at 37° C., pH 6.5. Format: biochemical.
Method: as §1
10 g of normal human brain cortex tissue pooled from three donors was purchased from Analytical Biological Services (ABS), Inc. (Wilmington, Del.). The tissue had been collected by ABS, Inc. ˜4 hrs post mortem and was flash frozen and stored at −80° C. The brain tissue was thawed and transferred to a large ceramic mortar on ice. 50 mL of ice-cold homogenization buffer (20 mM HEPES buffer, pH 7.0, with 1 mM MgCl2) was added to the mortar and the tissue was homogenized with a pestle. The homogenate was centrifuged at 36,500 g for 20 minutes at 4° C. The supernatants were discarded and the pellets re-suspended in homogenization buffer and centrifuged as before. The supernatants were again discarded and the pellets were re-suspended in 30 ml homogenization buffer and incubated in a 37° C. water bath for 20 min. The homogenate was then centrifuged as before. The supernatant was discarded and the membrane pellets were re-suspended in 30 ml resuspension buffer (50 mM Tris-HCl buffer, pH 7.4, containing 1 mM EDTA and 3 mM MgCl2). A Bradford Protein assay was performed to determine protein concentration. The protein suspension was aliquotted into screw cap Cryo tubes each containing ˜200 μL of suspension, flash frozen in liquid nitrogen and stored at −80° C. until used for the assay.
as §2, §3

As to `Cc1ccc(-c2cc(C(F)(F)F)nn2-c2ccc(S(N)(=O)=O)cc2)cc1` [Celecoxib, 4-[[5-(p-tolyl)-3-(trifluoromethyl)-1H-pyrazol-1-yl]]benzenesulfonamide], at FAAH [1], the IC50 was 167 µM.
On FAAH [2], `COc1ccc2c(c1)c(CC(=O)O)c(C)n2C(=O)c1ccc(Cl)cc1` [Indomethacin] had an IC50 of 96 µM.
Turning to `CS(=O)(=O)c1ccc(C2=C(c3ccccc3)C(=O)OC2)cc1` [Rofecoxib], the IC50 against FAAH [2] is 198 µM; at FAAH [1], 452 µM.
As to `Cc1onc(-c2ccccc2)c1-c1ccc(S(N)(=O)=O)cc1` [Valdecoxib, 4-(5-methyl-3-phenyl-isoxazol-4-yl)benzenesulfonamide], the IC50 against FAAH [2] turned out to be 41 µM; on FAAH [1] it was 280 µM.
